Reference: paper PMC6348381, “Discovery of an MLLT1/3 YEATS Domain Chemical Probe” (Angewandte Chemie (International Ed. in English), 2018)

What follows are compounds tested against T1, endogenous MLLT1 in MV4;11 cells (Homo sapiens, UniProt Q03111) (assay: Cellular thermal shift assay (CETSA), MV4;11 cells). Details: up to 10 μM.
T1 construct: with endogenous MLLT1 in MV4;11 cells; endogenous in cells; host or cells: MV4;11
Type: cell-based
Protocol: Supplementary Table 2. Thermal stabilisation of compound 1, 92 and Bromosporine with recombinant human bromodomain proteins. *50 µM compound concentration. †10 µM compound […]
II.VIII Cellular Thermal Shift Assay[6]
HEK293 and MV4;11 cells were cultured at 37 °C in a humidified 5% CO2 atmosphere in DMEM Medium containing 10% FBS, respectively. Cells were grown until approximately […]
DMSO final concentrati on) for 30 minutes. Cells were then collected, washed with PBS, transferred in PCR tubes, and pelleted by centrifugation (300 g, 3 min, RT.) The PBS was removed, and the cell pellets heated at the indicated temperature for 3 minutes in a PCR machine (UNO96 , VMR) and then placed on ice. Lysis buffer (50 mM Tris pH 7.5, 0.8% v/v NP-40, 5% v/v glycerol, 1.5 mM MgCl2, 100 mM NaCl, 25 mM NaF, 1mM Na3VO4, 1mM PMSF, 1mM DTT, 10 μg/mL TLCK, 1 μg/mL Leupeptin, 1 μg/mL Aprotinin, 1 μg/mL soy bean trypsin, ≥250 units/ mL Benzonase) was added and the cells lysed by 3 freeze -thaw cycles in liquid nitrogen. Aggregated proteins were removed by centrifugation (17000 g, 20 min, 4 °C) and the protein concentration of the retained soluble fraction determined. 4× sample loading buffer (Bio-Rad) containing 20% v/v DTT was added and samples were heated for 6 min at 90 °C prior to separation by SDS -PAGE. […]

T1 sequence (Q03111 whole entry): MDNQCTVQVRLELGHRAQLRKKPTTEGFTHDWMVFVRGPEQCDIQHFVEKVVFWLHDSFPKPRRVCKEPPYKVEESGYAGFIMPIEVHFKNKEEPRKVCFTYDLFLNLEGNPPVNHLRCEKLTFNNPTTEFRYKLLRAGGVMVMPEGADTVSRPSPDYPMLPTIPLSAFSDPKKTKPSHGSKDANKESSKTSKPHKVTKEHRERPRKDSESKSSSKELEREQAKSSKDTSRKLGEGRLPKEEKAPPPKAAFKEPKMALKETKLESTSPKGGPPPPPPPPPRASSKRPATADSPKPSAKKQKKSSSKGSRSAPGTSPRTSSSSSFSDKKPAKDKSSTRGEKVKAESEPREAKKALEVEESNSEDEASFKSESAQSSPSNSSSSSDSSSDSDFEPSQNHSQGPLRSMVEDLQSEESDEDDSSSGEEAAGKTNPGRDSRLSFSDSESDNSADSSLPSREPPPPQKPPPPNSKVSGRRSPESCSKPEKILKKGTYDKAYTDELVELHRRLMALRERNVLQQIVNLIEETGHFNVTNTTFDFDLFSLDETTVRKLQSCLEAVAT

| Compound | thermal stabilisation of MLLT1 (CETSA) |
| --- | --- |
| C[C@@H]1CCCN1Cc1nc2cc(NC(=O)c3ccc4c(cnn4C)c3)ccc2[nH]1 [Compound 91] | no thermal stabilisation |

These compounds were tested on MV4;11 AML cells (assay: qPCR gene expression in MV4;11 cells). Details: 1 μM, 72 h.
Type: cell-based, human
Protocol: II.XII Analysis of gene expression by quantitative polymerase chain reaction (qPCR) […]
MV4;11 cells were cultured at 37 °C in a humidified 5% CO2 atmosphere in RPMI medium containing 10% FBS and 1% L-glutamine. Cells were seeded at a density of 2 x 10^6 cells/well in 6 well plates pre-coated in polyhema, to enable suspension culture. Cells were […]
and washing with PBS, RNA was extracted from cells using RNeasy Mini Kit (Qiagen), following the manufacturer’s protocol. Total RNA was quantified by Nanodrop and 500 ng of RNA was converted to cDNA using GoScript Reverse Transcription System (Promega). The final cDNA products were quantified by QPCR using FAM dye-labelled Taqman primers and probe sets (see table below). Data was analysed using the comparative cycle threshold (CT) method where CT values were normalised by subtracting that from an endogenous housekeeping gene (VIC dye-labelled ACTB). The gene expression levels from compound-treated cells are presented as relative to those of DMSO treated control cells. Statistical analyses were carried out using two-way ANOVA (GraphPad Prism 7).
ACTB (Beta Actin) Endogenous Control 4326315E
Supplementary Table 4. Taqman Gene Expression Assays (Life Technologies). Taqman MGB probes have 5’ FAM reporter dye (or VIC) and 3’ non-fluorescent quencher. […]

| Compound | gene expression of MYC, MPO, DDN, CTSG, CD86 (qPCR) |
| --- | --- |
| C[C@@H]1CCCN1Cc1nc2cc(NC(=O)c3ccc4c(cnn4C)c3)ccc2[nH]1 [Compound 91] | diminished cell activity |

What follows are compounds tested against T2, MLLT3 YD (Homo sapiens, UniProt P42568) (assay: Isothermal titration calorimetry (ITC), MLLT3 YD). Details: not given.
T2 construct: made in house; host or cells: E. coli Rosetta
Type: binding
Protocol: Supplementary Table 1. AlphaScreen selectivity screen of compound 92 over other acyllysine […]
II.III Isothermal Titration Calorimetry (ITC)
Experiments were carried out on a Nano -ITC Standard Volume Instrument (TA Instruments).
All experiments were carried out at 25 °C in 20 mM HEPES pH 7.5, 150 mM NaCl, 0.5 mM TCEP and 5% glycerol. Protein soluti ons were buffer exchanged by gel filtration. The titrations were conducted using an initial injection of 2 μL followed by 32 injections of 8 μL.
Background dilution heat was subtracted from each experiment. Thermodynamic parameters […]
changes in free energy, enthalpy and entropy respectively. Independent single site binding models were employed in data analysis.
(also on this page, place not known: ac yllysine Nano-ITC -T 1/ KB. ΔH Molar&ratio&[injectant/cell] Time&[s] Corrected&Heat&Rate&[ucal/s] Experiment&1 K Experiment&2 K K)
(§1) (1 picture or pasted object on this page, not shown here)

| Compound | Kd |
| --- | --- |
| C[C@@H]1CCCN1Cc1nc2cc(NC(=O)c3ccc4c(cnn4C)c3)ccc2[nH]1 [Compound 91] | 540 nM |

The compounds below were run against T3, MLLT1 (Homo sapiens, UniProt Q03111) (assay: NanoBRET assay, full length MLLT1:Histone 3.3 in HEK293 cells). Details: relative to the DMSO control.
T3 construct: We also developed a full length MLLT1:Histone 3.3 (H3.3) NanoBRET assay; host or cells: HEK293
Type: cell-based
Protocol: Compounds were then added directly to media (in the presence of SAHA 2.5 M) at final concentrations 0.01-30 μM or an equivalent amount of DMSO as a vehicle control, and the plates were incubated for 24 h at 37 °C in the presence

T3 sequence (Q03111 whole entry): as above

| Compound | BRET activity (mBU), MLLT1:H3.3 NanoBRET |
| --- | --- |
| O=C(CCCCCCC(=O)Nc1ccccc1)NO [SAHA, suberoylanilide hydroxamic acid, reference compound] | significant increase in BRET activity |

The compounds below were run against T4, MLLT1 YD (Homo sapiens, UniProt Q03111) (assay: AlphaScreen (AS) assay, MLLT1 YEATS domain). Details: not given.
T4 construct: made in house; host or cells: E. coli Rosetta
T4 sequence (Q03111 1-138 limits assumed): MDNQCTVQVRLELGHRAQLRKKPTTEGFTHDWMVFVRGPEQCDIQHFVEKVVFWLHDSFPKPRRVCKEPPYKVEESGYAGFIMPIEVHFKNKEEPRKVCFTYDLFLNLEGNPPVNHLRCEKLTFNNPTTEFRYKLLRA
Type: binding
Protocol: II.IV Protein Expression and Purification
Human bromodomains were cloned, expressed and purified as previously described. The cloning, expression and purification of human YEATS domains are described as follows; Sequences for the wild type YEATS domains of MLLT1, MLLT3, GAS41 and YEATS2 were cloned into expression vectors (Table S1). E. coli Rosetta cells were grown in TB medium at 37°C. Overexpression was induced after five hours by addition of IPTG to a final concentration of 0.4 mM and cells were incubated at 17°C overnight. Cells were harvested by centrifugation and the cell pellet was resuspended in cold binding buffer (50 mM Tris at pH 7.5, 500 mM NaCl, 20 mM imidazole, 2 mM DTT) on a magnetic stirring plate at 4°C. The suspension was lysed using an Avestin EmulsiFlex-C5 homogeniser (1 pass without pressure, four passes with pressure between 1000-1500 bar). The lysate was clarified via centrifugation at 16,000 rpm at 4°C for 1 hour (JLA-16 rotor in Beckmann Coulter Avanti J- […]
The supernatant was loaded onto a standard NiNTA column (HisTrap
FF, 5 ml, GE Healthcare Lifesciences) on an ÄKTAxpress system (GE). After washing with binding buffer, the target protein was eluted at 300 mM imidazole. The eluted peak fractions were pooled and concentrated to 5 ml (Amicon concentrators, 10 kDa molecular weight cut off (MWCO)) and then separated via size exclusion chromatography (buffered with 20 mM Tris at pH 7.5, 500 mM NaCl, 2 mM DTT) using a GE Superdex 75 column on an […]
(NanoDrop ND-1000 Spectrophotometer) and protein identity was verified via SDS-PAGE and LC/MS. Pooled fractions were then again concentrated to at least 2 mg/ml and stored at […]
as §1

| Compound | IC50 |
| --- | --- |
| CCC1CCCN1Cc1nc2cc(NC(=O)c3ccc4c(cnn4C)c3)ccc2[nH]1 (stereo not drawn) [Compound 87] | 300 ± 60 nM |
| CC1CCN(Cc2nc3cc(NC(=O)c4ccc5c(cnn5C)c4)ccc3[nH]2)C1 (stereo not drawn) [Compound 90] | 730 ± 590 nM |
| C[C@@H]1C[C@H](C)CN(Cc2nc3cc(NC(=O)c4ccc5c(cnn5C)c4)ccc3[nH]2)C1 [Compound 82] | 5700 ± 2400 nM |
| COc1ccc(C(=O)Nc2ccc3[nH]c(CN4CCCCC4)nc3c2)cc1 [Compound 74] | 6400 ± 650 nM |
| C[C@@H]1CCC[C@H](C)N1Cc1nc2cc(NC(=O)c3ccc(Cl)cc3)ccc2[nH]1 [Compound 80] | > 20000 nM |
| CC1CCN(Cc2nc3cc(NC(=O)c4ccc5c(cnn5C)c4)ccc3[nH]2)C1 (stereo not drawn) [Compound 89] | 600 ± 460 nM |
| Cn1ncc2cc(C(=O)Nc3ccc4[nH]c(CN5C[C@H]6C[C@H]6C5)nc4c3)ccc21 [Compound 86] | 1400 ± 860 nM |
| O=C(Nc1ccc2[nH]c(CN3CCCCC3)nc2c1)c1cccc(OC(F)(F)F)c1 [Compound 70] | > 20000 nM |
| CC(c1nc2cc(NC(=O)c3ccc(Cl)cc3)ccc2[nH]1)N1CCCCC1 (stereo not drawn) [Compound 81] | > 20000 nM |
| O=C(Nc1ccc2[nH]c(CN3CCCCC3)nc2c1)c1ccccc1Cl [Compound 68] | > 20000 nM |
| CC1CCN(Cc2nc3cc(NC(=O)c4ccccc4)ccc3[nH]2)CC1 [Compound 83] | > 20000 nM |
| Cn1ncc2cc(C(=O)Nc3ccc4[nH]c(CN5CCCCC5)nc4c3)ccc21 [Compound 79] | 1600 ± 540 nM |
| COCC1CCCN1Cc1nc2cc(NC(=O)c3ccc4c(cnn4C)c3)ccc2[nH]1 (stereo not drawn) [Compound 88] | 970 ± 470 nM |
| Cc1ccc(C(=O)Nc2ccc3[nH]c(CN4CCCCC4)nc3c2)cc1C [Compound 72] | 5500 ± 60 nM |
| O=C(Nc1ccc2[nH]c(CN3CCCCC3)nc2c1)c1ccc(-n2ccnc2)cc1 [Compound 77] | 1000 ± 590 nM |
| CC1CCCN1Cc1nc2cc(NC(=O)c3ccc(Cl)cc3)ccc2[nH]1 (stereo not drawn) [Compound 85] | 330 ± 110 nM |
| COc1ccccc1C(=O)Nc1ccc2[nH]c(CN3CCCCC3)nc2c1 [Compound 69] | > 20000 nM |
| O=C(Nc1ccc2[nH]c(CCN3CCCCC3)nc2c1)c1ccc(Cl)cc1 [Compound 84] | > 20000 nM |

These compounds were tested against T5, MLLT3 (Homo sapiens, UniProt P42568) (assay: NanoBRET assay, full-length MLLT3-NanoLuc / histone H3.3-HaloTag in HEK293 cells). Details: 24 h, in the presence of 2.5 μM SAHA.
T5 construct: in full length MLLT3 N-terminal NanoLuc, Histone; host or cells: HEK293
T5 sequence (P42568 1-568): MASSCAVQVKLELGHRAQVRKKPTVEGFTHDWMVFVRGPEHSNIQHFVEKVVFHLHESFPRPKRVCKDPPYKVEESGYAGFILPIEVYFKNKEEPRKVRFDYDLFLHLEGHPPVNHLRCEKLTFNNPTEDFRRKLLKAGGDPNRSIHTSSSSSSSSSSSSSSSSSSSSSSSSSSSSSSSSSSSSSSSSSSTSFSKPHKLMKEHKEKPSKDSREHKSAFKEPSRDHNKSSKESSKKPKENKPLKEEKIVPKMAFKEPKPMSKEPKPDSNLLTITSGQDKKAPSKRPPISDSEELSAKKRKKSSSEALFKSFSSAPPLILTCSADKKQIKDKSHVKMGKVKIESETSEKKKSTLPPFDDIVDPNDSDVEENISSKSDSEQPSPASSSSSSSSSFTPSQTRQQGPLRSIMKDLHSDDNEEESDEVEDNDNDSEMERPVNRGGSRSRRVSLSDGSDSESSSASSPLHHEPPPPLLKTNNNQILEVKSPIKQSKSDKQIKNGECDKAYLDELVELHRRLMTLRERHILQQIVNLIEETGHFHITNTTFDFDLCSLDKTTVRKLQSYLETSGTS
Type: cell-based
Protocol: II.V NanoLuciferase Bioluminescent Resonance Energy Transfer (NanoBRET) Assay[2]
HEK293 cells ([…]) were plated in each well of a 6-well plate after 6 h cells were co-transfected with Histone H3.3-HaloTag (NM_002107) and a NanoLuciferase fusion of MLLT1 or MLLT3 (WT sequences from Promega HaloTag® human ORF in pFN21A) at a 1:500 and 1:10 (NanoLuc® to HaloTag®) ratio respectively with FuGENE HD transfection regent. Sixteen hours post-transfection, cells were collected and exchanged into media containing phenol red-free DMEM and 4% FBS in the absence (control sample) or the presence (experimental sample) of 100 nM NanoBRET 618 fluorescent ligand (Promega).
Cell density was adjusted to 2 x 10^5 cells/mL and then seeded 100 µL/well in a white 96-well plate (Corning Costar #3917). Compounds were then added directly to media (in the presence of SAHA 2.5 µM) at final concentrations 0.01-30 μM or an equivalent amount of DMSO as a vehicle control, and the plates were incubated for 24 h at 37 °C in the presence […]
NanoBRET Nano-Glo substrate (Promega) was added to both control and experimental samples at a final concentration of 10 µM. Readings were performed within 5 minutes using a ClarioSTAR (BMG labtech) equipped with LP 480 and 610 nm filters. A corrected BRET ratio was calculated and is defined as the ratio of the emission at 610 nm/[…] for experimental samples minus the emission at 6 10 nm/640 nm for control samples (not incubated with NanoBRET fluorescent ligand). BRET ratios are expressed as milliBRET units (mBU), where 1 mBU corresponds to the corrected BRET ratio multiplied by 1000.
3.3 C-terminal HaloTag in HEK293 cells. Treatment with SAHA (2.5 µM) alone increases MLLT3- […]
dependent manner. Mean±SD of BRET ratio (mBU), n=4 technical replicates.
(also on this page, place not known: 5) -well H3.3 -HaloTag pFN21A ) ( NanoLuc® H aloTag®) post -transfection, red -free Nano -Glo 10 5 6 10 6 10 l igand). cells . […]

| Compound | IC50 |
| --- | --- |
| C[C@@H]1CCCN1Cc1nc2cc(NC(=O)c3ccc4c(cnn4C)c3)ccc2[nH]1 [Compound 91] | 5800 ± 70 nM |

Same assay, conditions: 24 h, representative assay

| Compound | MLLT3-Histone 3.3 interaction (mBU) |
| --- | --- |
| O=C(CCCCCCC(=O)Nc1ccccc1)NO [SAHA, suberoylanilide hydroxamic acid, reference compound] | increases |
